US9050378B2, “N2S2 chelate-targeting ligand conjugates” (Board of Regents, The University of Texas System, priority 2003, dated 2015)

System: RBA CRL-1747 mammary tumor
Assay: Biodistribution in breast (mammary) tumor-bearing rats
Assay type: in vivo, rat
Settings: Table 2
Description: Biodistribution was assessed in mammary tumor-bearing rats (RBA CRL-1747, n=3/time interval, iv). Studies were performed 14 to 17 days after implantation when tumors reached approximately 1 cm in diameter. Following administration of the radiotracer, rats were sacrificed at 0.5-4 hrs. The selected tissues were excised, weighed and counted for radioactivity by using a gamma counter (Packard Instruments, Downers Grove, Ill.). The biodistribution of tracer in each sample was calculated as percentage of the injected dose per gram of tissue wet weight (% ID/g).
Biodistribution was assessed in breast tumor-bearing rats (RBA CRL-1747, n=3/time interval, iv). Studies were performed 14 to 17 days after implantation when tumors reached approximately 1 cm in diameter. Following administration of the radiotracer, rats were sacrificed at 0.5-4 hrs. The selected tissues were excised, weighed and counted for radioactivity by using a gamma counter (Packard Instruments, Downers Grove, Ill.). The biodistribution of tracer in each sample was calculated as percentage of the injected dose per gram of tissue wet weight (% ID/g).

Compound: O=C([O-])[C@H](C[S-])NCCN[C@@H](CS)C(=O)[O-].[O]=[Tc+3] [^99mTc-EC, ^99mTc-L,L-ethylenedicysteine, reference compound]
- Blood (1 Hour): 0.273 ± 0.039 % ID/g
- Intestine (1 Hour): 0.787 ± 0.106 % ID/g
- Kidney (1 Hour): 8.991 ± 0.268 % ID/g
- Liver (1 Hour): 0.367 ± 0.006 % ID/g
- Lung (1 Hour): 0.187 ± 0.029 % ID/g
- Muscle (1 Hour): 0.043 ± 0.002 % ID/g
- Stomach (1 Hour): 0.127 ± 0.106 % ID/g
- Thyroid (1 Hour): 0.229 ± 0.118 % ID/g
- Tumor (1 Hour): 0.149 ± 0.020 % ID/g
- Tumor/Blood (1 Hour): 0.544 ± 0.004
- Tumor/Lung (1 Hour): 0.797 ± 0.022
- Tumor/Muscle (1 Hour): 3.414 ± 0.325
- Urine (1 Hour): 11.045 ± 6.158 % ID/g
- Blood (2 Hour): 0.211 ± 0.001 % ID/g
- Intestine (2 Hour): 0.401 ± 0.093 % ID/g
- Kidney (2 Hour): 9.116 ± 0.053 % ID/g
- Liver (2 Hour): 0.286 ± 0.073 % ID/g
- Lung (2 Hour): 0.144 ± 0.002 % ID/g
- Muscle (2 Hour): 0.028 ± 0.009 % ID/g
- Stomach (2 Hour): 0.037 ± 0.027 % ID/g
- Thyroid (2 Hour): 0.106 ± 0.003 % ID/g
- Tumor (2 Hour): 0.115 ± 0.002 % ID/g
- Tumor/Blood (2 Hour): 0.546 ± 0.010
- Tumor/Lung (2 Hour): 0.797 ± 0.002
- Tumor/Muscle (2 Hour): 4.425 ± 1.397
- Urine (2 Hour): 13.192 ± 4.505 % ID/g
- Blood (4 Hour): 0.149 ± 0.008 % ID/g
- Intestine (4 Hour): 0.103 ± 0.009 % ID/g
- Kidney (4 Hour): 7.834 ± 1.018 % ID/g
- Liver (4 Hour): 0.234 ± 0.016 % ID/g
- Lung (4 Hour): 0.120 ± 0.012 % ID/g
- Muscle (4 Hour): 0.019 ± 0.001 % ID/g
- Stomach (4 Hour): 0.043 ± 0.014 % ID/g
- Thyroid (4 Hour): 0.082 ± 0.005 % ID/g
- Tumor (4 Hour): 0.096 ± 0.005 % ID/g
- Tumor/Blood (4 Hour): 0.649 ± 0.005
- Tumor/Lung (4 Hour): 0.798 ± 0.007
- Tumor/Muscle (4 Hour): 5.093 ± 0.223
- Urine (4 Hour): 8.693 ± 2.981 % ID/g
- Blood (30 Min.): 0.435 ± 0.29 % ID/g
- Intestine (30 Min.): 0.173 ± 0.029 % ID/g
- Kidney (30 Min.): 7.914 ± 0.896 % ID/g
- Liver (30 Min.): 0.508 ± 0.062 % ID/g
- Lung (30 Min.): 0.272 ± 0.019 % ID/g
- Muscle (30 Min.): 0.060 ± 0.006 % ID/g
- Stomach (30 Min.): 0.136 ± 0.060 % ID/g
- Thyroid (30 Min.): 0.219 ± 0.036 % ID/g
- Tumor (30 Min.): 0.342 ± 0.163 % ID/g
- Tumor/Blood (30 Min.): 0.776 ± 0.322
- Tumor/Lung (30 Min.): 1.256 ± 0.430
- Tumor/Muscle (30 Min.): 5.841 ± 3.253
- Urine (30 Min.): 9.124 ± 0.808 % ID/g
